Data on 1 molecule can be found in patent publication EP0110955B1, “BRAIN-SPECIFIC DRUG DELIVERY” (UNIVERSITY OF FLORIDA, priority 1982, dated 1983).

SMILES strings stand for the structures.

A short description of data set [1]: Enzymatic hydrolytic cleavage and rate of oxidation of compound 5c in rat liver homogenate (HPLC). It counts as in vitro ADME, Sprague-Dawley rats. The following applies: rat, pH 7.4; 20% liver homogenate, 37°C, pseudo first order; read-out: apparent half-lives for the disappearance. The procedure: A high pressure liquid chromatography (HPLC) method was developed for the studies of the degradation of the dihydropyridine dopamine derivative. The chromatographic analysis was performed on a component system consisting of a Waters Associate Model 6000A solvent delivery system, Model U6K injector and Model 440 dual channel absorbance detector operated at 254 and 280 nm. A 30 cm x 3.9 mm (internal diameter) reverse phase µBondapak C18 column (Waters Associates), operated at ambient temperature, was used for all separations. The mobile phase used for the separation of the dihydropyridine derivative, its degradation products and oxidation products consisted of 0.005 M solution of 1-heptanesul- fonic acid sodium salt (PIC B-7 Eastman Kodak) in CH3CN; 0.01 M aqueous dibasic ammonium phosphate (2.5:1). A peak was always shown at a retention time of 2.2 min which is believed to be a monodeacylated dihydropyridine derivative, since it eventually did result in 6a.
The liver homogenate was prepared by the following method. Three Sprague-Dawley rats were killed by decapitation and the livers were removed, weighed and homogenized by tissue homogenizer in 0.11 M aqueous phosphate buffer, pH 7.4, to make 20% liver homogenate. […] When all samples had been collected, they were centrifuged and each supernatant was filtered through Whatman 1 filter paper and analyzed by HPLC.

Data set [2] can be described thus: Chemical oxidation by hydrogen peroxide and silver nitrate. It counts as physicochemical. The following applies: H2O2 or alcoholic AgNO3 solution. The procedure: The stability of the 1,4-dihydropyridine derivatives (5) was determined in the presence of the oxidizing agents, alcoholic AgN03 and hydrogen peroxide. The in vitro rates of oxidation of the 1,4-dihydropyridine derivative (5c) in 80% plasma, 20% brain homogenate, 20% liver homogenate and in whole blood were determined.
To 10 ml of 30% H202 was added 0.2 g of the dihydropyridine derivative (products of Examples 5 or 8). The mixture was stirred and samples were taken to check the UV spectrum.
To 5 ml of saturated methanolic AgN03 solution was added 1 ml of 5% methanolic solution of the dihydropyridine derivative. The mixture was shaken and left for 5 min for complete precipitation of silver, centrifuged and an aliquot was taken to check the UV spectrum. Complete oxidation to the quaternary salts was observed.

Data set [3] concerns brain-dopamine concentrations. Nature of the data set: Changes in brain-dopamine concentrations after intrajugular administration of 5c. In kind it is in vivo. The note with it: 5c administered intrajugularly, some of the rats, others practically none. The procedure: To determine whether dopamine itself was finally released in the brain upon completion of the aforesaid complex delivery process, 5c was administered intrajugularly and changes in brain-dopamine concentrations following that administration were studied. […] It is known that dopamine and its agonists decrease prolactin secretion following their binding to stereospecific receptors located on lactophors in the anterior pituitary (AP) gland [G.P. Mueller, J.W. Simpkins, J. Meites and K.E. Moore, Neuroendocrinology, 20, 121 (1976); W. Wuttke, E. Cassell and J Meites, Endocrinology, 88, 737 (1971); J.A. Clemens, E.B. Smalstig and C.J. Shaar, Acta Endocrinol., 79, 230 (1975)]. This effect is dose- dependent and it can also be observed in vitro, incubating anterior pituitaries with dopamine or its agonists [R.M. MacLeod Ed. L. Martini and W.F. Ganong, Raven Press].

For the molecule `CN1C=CCC(C(=O)NCCc2ccc(OC(=O)C(C)(C)C)c(OC(=O)C(C)(C)C)c2)=C1` [5c, 1-Methyl-3-(N-[β-(3,4-dipivalyloxyphenyl)-ethyl]}carbamoyl-1,4-dihydropyridine], the half-life at 900 µM in data set [1] was found to be 6 min. Besides, the “oxidation to the corresponding quaternary salt 6c” value in data set [2] was “quantitatively oxidized”. Also, in data set [3], the “increase in the dopamine concentrations” value is recorded as “up to threefold increase”.
